US20120251551A1, “Substituted (Heteroarylmethyl)thiohydantoins” (BAYER PHARMA AKTIENGESELLSCHAFT, priority 2009, published 2012)
Residue numbers refer to the chain shown, from its start. Read-outs that look alike come from different tables or passages of the source.

How the values were obtained:
[1] = target: T1, human androgen receptor W741L mutant (Homo sapiens, UniProt P10275, W742L); experiment: Cell-based transactivation assay for human androgen receptor mutant W741L
T1 construct: expressed in transfected cells; host or cells: PC-3 cells, transient transfection with a pSG5-derived plasmid
T1 sequence (P10275 1-920 W742L): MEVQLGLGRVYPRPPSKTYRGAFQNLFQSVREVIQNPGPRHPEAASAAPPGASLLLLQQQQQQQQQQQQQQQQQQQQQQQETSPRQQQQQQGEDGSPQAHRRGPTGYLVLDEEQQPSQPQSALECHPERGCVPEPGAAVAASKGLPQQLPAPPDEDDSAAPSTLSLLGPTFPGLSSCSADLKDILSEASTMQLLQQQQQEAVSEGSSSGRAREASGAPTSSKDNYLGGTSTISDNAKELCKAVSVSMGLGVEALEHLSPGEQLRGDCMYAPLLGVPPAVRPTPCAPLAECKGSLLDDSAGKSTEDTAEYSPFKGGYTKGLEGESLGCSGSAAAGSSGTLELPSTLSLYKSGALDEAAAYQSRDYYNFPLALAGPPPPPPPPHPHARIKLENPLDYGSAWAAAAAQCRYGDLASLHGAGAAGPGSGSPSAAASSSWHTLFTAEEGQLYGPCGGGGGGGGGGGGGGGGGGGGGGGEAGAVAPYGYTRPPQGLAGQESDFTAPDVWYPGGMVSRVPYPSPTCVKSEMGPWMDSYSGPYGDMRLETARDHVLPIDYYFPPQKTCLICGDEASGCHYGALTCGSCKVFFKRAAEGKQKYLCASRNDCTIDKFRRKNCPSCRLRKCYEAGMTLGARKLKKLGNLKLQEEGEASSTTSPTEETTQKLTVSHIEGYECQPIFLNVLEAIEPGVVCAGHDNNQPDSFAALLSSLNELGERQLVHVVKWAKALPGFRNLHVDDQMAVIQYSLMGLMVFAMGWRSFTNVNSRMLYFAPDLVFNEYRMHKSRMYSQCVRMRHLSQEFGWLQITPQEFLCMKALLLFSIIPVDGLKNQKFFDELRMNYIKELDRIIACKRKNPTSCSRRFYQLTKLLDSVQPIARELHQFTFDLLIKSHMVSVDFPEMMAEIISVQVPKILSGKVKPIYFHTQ

[2] = target: T2, human androgen receptor E709Y mutant (Homo sapiens, UniProt P10275, E710Y); experiment: Cell-based transactivation assay for human androgen receptor mutant E709Y
T2 construct: expressed in transfected cells; host or cells: PC-3 cells, transient transfection with a pSG5-derived plasmid
T2 sequence (P10275 1-920 E710Y): T1 sequence (P10275 1-920 W742L) with E710Y, L742W
Description: Cell-Based Transactivation Assay for Human Androgen Receptor Mutant E709Y
PC-3 cells (Kaighn et al., Invest. Urol. 17:16-23, 1979) were grown in 5% charcoal-stripped medium and seeded at a concentration of 10000 cells per well in a 96-well plate. They were transiently transfected with a pSG5-derived plasmid (#216201 from Stratagene, La Jolla, Calif., USA) coding for the human androgen receptor E709Y mutant (Georget et al., Molecular Endocrinology, 20(4): 724-734, 2006) and an MMTV-Luciferase reporter plasmid based on pGL4.14 14 (#E6691, Promega Corporation, Madison, Wis., USA). The compound to be tested was added at a concentration range varying from 1×10^−9 to 1×10^−6 M together with 1×10^−10 R1881. After 24 h incubation at 37° C. in a 5% CO2 atmosphere, 100 μl of Steady Glo Lysis and Detection reagent (Steady Glo Luciferase assay system E2550 from Promega Corporation. Madison, Wis., USA) were added. Antagonistic activity was determined by measuring Luciferase activity in a Victor 3 Luminometer (PerkinElmer, Waltham, Mass., USA) using the Steady Glo Luciferase Assay (E2550, Promega). IC50 values were calculated for anti-androgenic activity.

LNCaP cells = experiment: Proliferation assay with LNCaP cells; type: cell-based; conditions: Homo sapiens, 168 h, R1881 (1×10^−10) stimulated growth, day 7, read-out: inhibition IC50 (LNCaP)
Description: Proliferation Assay with LNCaP Cells
LNCaP cells (Horoszewicz et al., in “Models for Prostate Cancer” (ed. G. P. Murphy), Alan R. Liss, New York 1981, p. 115-132; Horoszewicz et al., Cancer Res. 43:1809-1818, 1983) were seeded at 2000 cells/well in 96-well plates in RPMI (F1235, Biochrom AG, Berlin, Germany) without phenol red supplemented with 5% charcoal-stripped serum. After 3 days, the cells were treated with R1881) (1×10^−10) and compound (day 0). Cell number was determined by Alamar Blue (DAL1100, Invitrogen, Life Technologies, Lohne, Germany) staining (2.5 h) at day 0 and day 7. Fluorescence was determined in Victor3 (Excitation 530 nm; emission 590 nm). Stimulated growth was defined as the signal measured at day 7 for cells treated only with R1881. Basal level was defined as the signal measured at day 7 for cells grown without R1881.

VCaP cells = experiment: Proliferation assay with VCaP cells; type: cell-based; conditions: Homo sapiens, 168 h, R1881 (1×10^−10) stimulated growth
How it was run: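 Cells in DMEM with 10% charcoal-stripped serum treated one day after seeding with R1881 (1×10^−10) plus compound. Cell number read by Alamar Blue fluorescence (ex 530/em 590 nm) at day 0 and day 7; day-7 R1881-only signal defines stimulated growth, day-7 signal without R1881 defines basal level.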

[3] = day 7, read-out: Antiproliferative activity VCaP IC50
[4] = day 7, read-out: inhibition IC50 (VCaP)

`Cc1nc(C(F)(F)F)ccc1CN1C(=S)N(c2ccc(C#N)c(C(F)(F)F)c2)C(=O)C1(C)C` [Example 13, 4-(4,4-Dimethyl-3-{[2-methyl-6-(trifluoromethyl)pyridin-3-yl]methyl}-5-oxo-2-thioxoimidazolidin-1-yl)-2-(trifluoromethyl)benzonitrile] gave an IC50 [1] of 93.7 nM, an IC50 [2] of 24.7 nM and an IC50 (LNCaP cells) of 124 nM. For the same compound, the IC50 (VCaP cells; [3]) was 300 nM.
`CC1(C)C(=O)N(c2ccc(C#N)c(C(F)(F)F)c2)C(=S)N1CCCCO` [4-[3-(4-Hydroxybutyl)-4,4-dimethyl-5-oxo-2-thioxoimidazolidin-1-yl]-2-(trifluoromethyl)benzonitrile, reference compound] showed an IC50 [1] of 89.7 nM, an IC50 [2] of over 1000 nM and an IC50 (VCaP cells; [3]) of over 1000 nM.
Work on `CC1(C)C(=O)N(c2ccc(C#N)c(C(F)(F)F)c2)C(=S)N1Cc1ccccc1` [Comparative data^4] yielded an IC50 [1] of 166 nM, an IC50 [2] of 587 nM and an IC50 (VCaP cells; [3]) of over 1000 nM.
`CN1C(=S)N(c2ccc(C#N)c(C(F)(F)F)c2)C(=O)C1(C)C` [2-(Trifluoromethyl)-4-(3,4,4-trimethyl-5-oxo-2-thioxoimidazolidin-1-yl)benzonitrile, reference compound] gave an IC50 [1] of 159 nM, an IC50 [2] of 117 nM and an IC50 (VCaP cells; [3]) of over 1000 nM.
`CC1(C)C(=O)N(c2ccc(C#N)c(C(F)(F)F)c2)C(=S)N1Cc1ccc(N2CCS(=N)(=O)CC2)nc1` [Example 9, 4-(3-{[6-(1-Imino-1-oxido-1λ^6-thiomorpholin-4-yl)pyridin-3-yl]methyl}-4,4-dimethyl-5-oxo-2-thioxoimidazolidin-1-yl)-2-(trifluoromethyl)benzonitrile] gave an IC50 [1] of 275 nM, an IC50 [2] of 5.65 nM and an IC50 (LNCaP cells) of 303 nM.
Compound `CC(C)(O)COc1ccc(CN2C(=S)N(c3ccc(C#N)c(C(F)(F)F)c3)C(=O)C2(C)C)cn1` [Example 10, 4-(3-{[6-(2-Hydroxy-2-methylpropoxy)pyridin-3-yl]methyl}-4,4-dimethyl-5-oxo-2-thioxoimidazolidin-1-yl)-2-(trifluoromethyl)benzonitrile] has an IC50 [1] of 285 nM, an IC50 [2] of 26.3 nM and an IC50 (LNCaP cells) of 283 nM. It also gave an IC50 (VCaP cells; [3]) of 229 nM and an IC50 (VCaP cells; [4]) of 229 nM.
`CC1(C)C(=O)N(c2ccc(C#N)c(C(F)(F)F)c2)C(=S)N1Cc1ccc(-n2ccnc2)nc1` [Example 1, 4-(3-{[6-(1H-Imidazol-1-yl)pyridin-3-yl]methyl}-4,4-dimethyl-5-oxo-2-thioxoimidazolidin-1-yl)-2-(trifluoromethyl)benzonitrile] was tested, and the IC50 [1] was 173 nM, the IC50 [2] was 7.21 nM and the IC50 (LNCaP cells) was 59 nM. The IC50 (VCaP cells; [3]) was 291 nM.
`CC1(C)C(=O)N(c2ccc(C#N)c(C(F)(F)F)c2)C(=S)N1Cc1ccc(N2CCOCC2)nc1` [Example 4, 4-(4,4-Dimethyl-3-{[6-(morpholin-4-yl)pyridin-3-yl]methyl}-5-oxo-2-thioxoimidazolidin-1-yl)-2-(trifluoromethyl)benzonitrile] was tested, and the IC50 [1] was 89.2 nM, the IC50 [2] was 77.2 nM and the IC50 (LNCaP cells) was 117 nM. It also gave an IC50 (VCaP cells; [3]) of 124 nM and an IC50 (VCaP cells; [4]) of 124 nM.
With `CC1(C)C(=O)N(c2ccc(C#N)c(C(F)(F)F)c2)C(=S)N1Cc1ccc(F)cc1` [Comparative data^4] the IC50 [1] was over 1000 nM, the IC50 [2] was over 1000 nM and the IC50 (VCaP cells; [3]) was over 1000 nM.
Work on `CC1(C)C(=O)N(c2ccc(C#N)c(C(F)(F)F)c2)C(=S)N1Cc1ccc(C(F)(F)F)nc1` [Example 2, 4-(4,4-Dimethyl-5-oxo-2-thioxo-3-{[6-(trifluoromethyl)pyridin-3-yl]methyl}imidazolidin-1-yl)-2-(trifluoromethyl)benzonitrile] yielded an IC50 [1] of 86.7 nM, an IC50 [2] of 14.2 nM and an IC50 (LNCaP cells) of 314 nM. For the same compound, the IC50 (VCaP cells; [3]) was 247 nM.
